Blank lines part the entries; values can stand above or below the compound they belong to.
What was measured:
[1] = cited from earlier work
[2] = Solubility of rejuvenating ingredients in acidified deionized water mimicking the stomach
Method: In order to determine the amount of rejuvenating-nutrient that may be completely dissolved in water under conditions similar to that of stomach, the following study was executed: Deionized water was heated to 98° F.-99° F. to mimic the temperature of the human body. Adjustment of pH of the water to 2.7-2.9 was accomplished using hydrochloric acid to effect acidic conditions of the human stomach. […] Water/joints products were placed in a heated water bath with continuous agitation. Solubility of various joints products was compared at 30 minutes, one hour and two hours.
The following data reflect the percentage of product solubilized compared to added concentration at 0 minutes: […]

Compound: N[C@H]1C(O)O[C@H](CO)[C@@H](O)[C@@H]1O.O=S(=O)(O)O (some centres unmarked) [glucosamine sulfate]
Clinical improvement of symptoms, persistence ([1]; after discontinuation of oral administration): up to four weeks
Clinical improvement of symptoms, onset ([1]; after oral administration): as early as one week

Compound: CS(C)(=O)=O [MSM, Methyl-Sulfonyl-Methane]
% SOLUBILITY 1 HR. ([2]; 1 h, pH 2.7): 20%
% SOLUBILITY 2 HRS. ([2]; 2 h, pH 2.7): 30%

Compound: Chondroitin sulfate
% SOLUBILITY 30 MINS. ([2]; 10% concentration, water 98-99° F., pH 2.7-2.9): 100%
% SOLUBILITY 30 MINS. ([2]; 30% concentration, water 98-99° F., pH 2.7-2.9): 100%
% SOLUBILITY 30 MINS. ([2]; 50% concentration, water 98-99° F., pH 2.7-2.9): 100%
soluble at 50% concentration ([2]; 50% concentration, water 98-99° F., pH 2.7-2.9, time not given): 100%
% SOLUBILITY 30 MINS. ([2]; 70% concentration, water 98-99° F., pH 2.7-2.9): 20%
% SOLUBILITY 1 HR. ([2]; 70% concentration, water 98-99° F., pH 2.7-2.9, one hour): 20%
% SOLUBILITY 2 HRS. ([2]; 70% concentration, water 98-99° F., pH 2.7-2.9, two hours): 20%

Second part, the compound after the results:

% SOLUBILITY 2 HRS. ([2]; 2 h, pH 2.7): 30%
Compound: N[C@H]1C(O)O[C@H](CO)[C@@H](O)[C@@H]1O (some centres unmarked) [GLUCOSAMINE, Glucosamine]

% SOLUBILITY 1 HR. ([2]; pH 2.7): 10%
% SOLUBILITY 2 HRS. ([2]; pH 2.7): 15%
Compound: Gelatin
